Experiment: Brain pharmacokinetics after 16 weeks of once daily administration (LC-MS/MS)
Format: in vivo, mouse
Experimental: Brain samples were collected, rinsed with saline and blotted dry. Samples were fixed in 4% PFA for immunohistochemical analyses; frozen and kept for gene expression and molecular biology analyses; and used frozen for LC-MS/MS analysis.
Unless otherwise stated, the methodology and sample collection were performed as in Example 2. […] Twenty-four hours after the last dose the animals were euthanized at varying time-points and AZ-3102 was measured by LC-MS/MS. […] However, exposure (AUC0-24) proportionality was well conserved between doses: 6 versus 3 (1.8-fold); 3 and 1.5 (2.0-fold) and 1.5 and 0.5 (2.4-fold). […] The reduced clearance in the brain versus plasma has also been observed in prior studies with rats and dogs (internal data). […] The plasma concentration at all doses was approximately 1 ng/mL after 24 h and in the brain the concentration was greater than 20 ng/g tissue.

SMILES: OC[C@H]1[C@@H](O)[C@H](O)[C@@H](O)CN1CCCCCOCc1ccc(-c2ccccc2)c(F)c1 [AZ-3102]
- concentration profile in brain (24 h period, most dose groups): sustained with very little decrease
- concentration at 24 h (Hexb (−/−) and Hexb (+/−), mouse, brain, oral, all doses): > 20 ng/g

From patent US20250120958A1, “Treatment of GM2 Gangliosidosis” (Azafaros B.V., priority 2022, published 2025)
